Measurements as given in patent US20150289518A1, “COMPOSITION COMPRISING A BIOLOGICAL CONTROL AGENT AND AN INSECTICIDE” (BAYER CROPSCIENCE AG, priority 2012, published 2015).

What was measured:
Assay type in all cases: in vivo
[1] = test system: southern root-knot nematode (Meloidogyne incognita); experiment: Meloidogyne incognita test (MELGIN); conditions: nematicidal activity by gall formation on salad roots, 0.08 ppm
Procedure: (§1) Formula for the efficacy of the combination of two compounds • The expected efficacy of a given combination of two compounds is calculated as follows (see Colby, S. R., “Calculating Synergistic and antagonistic Responses of Herbicide Combinations”, Weeds 15, pp. 20-22, 1967):
(§2) • X is the efficacy expressed in % mortality of the untreated control for test compound A at a concentration of m ppm respectively m g/ha, • Y is the efficacy expressed in % mortality of the untreated control for test compound B at a concentration of n ppm respectively n g/ha, • E is the efficacy expressed in % mortality of the untreated control using the mixture of A and B at m and n ppm respectively m and n g/ha,
(§3) If the observed insecticidal efficacy of the combination is higher than the one calculated as “E”, then the combination of the two compounds is more than additive, i.e., there is a synergistic effect.
• Solvent: 125.0 parts by weight of acetone
To produce a suitable preparation of active compound, 1 part by weight of active compound is mixed with the stated amount of solvent, and the concentrate is diluted with water to the desired concentration. […]
After the specified period the nematicidal activity is determined on the basis of the percentage of gall formation. […] The values determined thus are recalculated using the Colby-formula (see sheet 1).

[2] = test system: mustard beetle larvae (Phaedon cochleariae); experiment: Phaedon cochleariae spray test; conditions: mortality, Chinese cabbage leaf disks sprayed
Procedure: as §1, §2, §3
• Solvent: 78.0 parts by weight of acetone • 1.5 parts by weight of dimethylformamide • Emulsifier: alkylaryl polyglycol ether […]
(§4) After the specified period of time, mortality in % is determined. […] The mortality values determined thus are recalculated using the Colby-formula (see sheet 1).

[3] = test system: green peach aphid (Myzus persicae); experiment: Myzus persicae spray test; conditions: mortality
Procedure: as §1, §2, §3
• Solvent: 78.0 parts by weight acetone • 1.5 parts by weight dimethylformamide • Emulsifier: alkylaryl polyglycol ether […]
as §4

Row | Compound | Efficacy in % after 14d [1] [%] | Efficacy in % after 6d ([2]; 0.2 g ai/ha) [%] | Efficacy in % after 6d ([3]; 0.8 g ai/ha, test 2, 6 d) [%] | Efficacy in % after 1d ([3]; 4 g ai/ha, test 1, 1 d) [%] | Efficacy in % after 6d ([2]; 0.8 g ai/ha) [%]
1 | Abamectin | 0 | 0 |  |  | 
2 | N#Cc1nn(-c2c(Cl)cc(C(F)(F)F)cc2Cl)c(N)c1[S+]([O-])C(F)(F)F (centres unmarked) [Fipronil] |  |  | 0 | 0 | 0
